Measurements reported in a melting point compilation (Tetko et al.).

Row | melting point | SMILES
1 | 89 to 91 °C | COC(=O)c1cc(Br)cc(C(=O)OC)c1
2 | 127 to 128 °C | N#Cc1ccc(NN)c(Cl)c1
3 | -82 °C | COC(CC(C)=O)OC
4 | 113 °C | S=C(c1ccc2c(c1)OCO2)N1CCCCC1
5 | 5 °C | CC1CCOS(=O)O1 (stereo unspecified)
6 | 166 °C | CC(C)=C1C(=O)NN(c2ccccc2)C1=O
7 | 133 °C | C=Cc1cccc(C(N)=O)c1
8 | 160 to 161 °C | Cc1ccc(Cl)cc1NC(N)=S
9 | 127 °C | Cc1cc([N+]([O-])=Nc2ccccc2)c(C(C)C)cc1[N+]([O-])=Nc1ccccc1
10 | 133 °C | ON=Cc1c(F)cccc1Cl
11 | 160 °C | Cc1ncc(CO)c(CO)c1O
12 | 147 to 149 °C | C=CCSc1ncccc1C(=O)O
13 | 160 °C | c1ccc(CNc2ccccc2-n2c(-c3ccccc3)nc3ccccc32)cc1
14 | 115 °C | O=C(c1ccc2ccccc2c1)c1noc(-c2cccc3ccccc23)c1S(=O)(=O)c1ccccc1
15 | 91 °C | CCCCC(=O)OCN1C(=O)NC(c2ccccc2)(c2ccccc2)C1=O
16 | 51 °C | COc1cc(CCN(Cc2cccc(O)c2)C(=O)C(F)(F)F)ccc1O
17 | 4 °C | CCCCCCCCCCCCCCC(C)C
18 | 159 to 161 °C | CC(C)NC(=O)c1cc(F)c(Cl)nc1Cl
19 | 202 °C | COC1=C(O)C(=O)C(C)=C(O)C1=O
20 | 108 °C | CS[C@H]1C(=O)[C@@H]2CC[C@]3(C)[C@@H](OC(C)(C)C)CC[C@]13[C@H]2Cl
21 | 252 °C | O=C1c2ccccc2C(=O)C1(O)C1(O)C(=O)c2ccccc2C1=O
22 | 50 °C | CCCCCCCCCCCCCCCCCCCCCC(=O)OCC
23 | 117 °C | COc1ccc(F)cc1C#N
24 | 177 °C | CC(C)(C)OC(=O)NC1(C(=O)O)CCCCC1
25 | 81 to 82 °C | COC(=O)c1ccc(C(=O)OC)c(I)c1
26 | 159 to 163 °C | O=C1OC(=O)c2c(F)cccc21
27 | 168 to 170 °C | COC(=O)c1c(C)n[nH]c1-c1cc(C)on1

Row | melting point | SMILES
28 | 68 to 70 °C | CC(NC(=O)OC(C)(C)C)C(=O)N1CCCC1C(=O)OCc1ccccc1 (stereo unspecified)
29 | 103 to 105 °C | Cc1cc(O)c(C(C)C)cc1SC#N
30 | 157 °C | Nc1ccc(S(=O)(=O)c2ccc(NC(=O)CCC(=O)O)cc2)cc1
31 | 118 °C | CC1CCCC(C)N1C(=O)COC(=O)c1ccccc1 (stereo unspecified)
32 | 43 °C | COC=C(C(=O)OC)C(=O)OC
33 | 107 °C | Cc1ccc(O)c([N+](=O)[O-])n1
34 | 115 to 117 °C | Cc1csc(C(N)=O)c1
35 | 120 °C | Cc1nc(-c2cc(CO)no2)cs1
36 | 17 °C | c1ccc2c(c1)CNC2
37 | 51 °C | Nc1ccc(C(F)(F)F)cc1I
38 | 135 °C | CC(=O)Nc1ccc(OCC(O)CNC(C)C)cc1 (stereo unspecified)
39 | 139 °C | Cc1ccc(NC=CC(=O)c2ccc3c(c2)CCCC3)cc1
40 | -8 °C | CCOC(=O)CC(C(C)=O)C(=O)OCC (stereo unspecified)
41 | 175 °C | O=C(c1ccccc1O)N1CCOCC1
42 | 52 °C | COc1ccc(C(C)=O)c(F)c1
43 | 109 °C | Fc1ccc(C(Br)(c2ccc(F)cc2)c2ccc(F)cc2)cc1
44 | 186 °C | CC(C)(Oc1ccc(CCNC(=O)c2ccc(Cl)cc2)cc1)C(=O)O
45 | 19 °C | Cc1cccc2ncccc12
46 | 206 °C | CC(=O)c1cc(O)ccc1O
47 | 168 °C | COc1ccc(/C=C(\C(N)=O)c2nc3ccccc3s2)cc1
48 | 204 °C | Cc1cccc(C(=O)N(NC(=O)c2ccccc2)C(C)(C)C)c1C
49 | 147 °C | c1ccc(C2c3ccccc3-c3ccccc32)cc1
50 | 159 to 160 °C | O=[N+]([O-])c1ccc(Oc2c(Cl)cc(S(=O)(=O)Cl)cc2Cl)c(Cl)c1
51 | 168 to 170 °C | COC(=O)C1Nc2ccccc2C1(C)C (stereo unspecified)
52 | 249 °C | O=C(O)c1ccnc(C(=O)O)c1
53 | 128 °C | c1ccc2c(c1)Cc1ccccc1S2

More lines, now with the values behind:

Row | SMILES | melting point
54 | Cc1ccccc1NN=C1C(=O)OC(C)(C)OC1=O | 106 °C
55 | CCCCCC(=O)OCC(COC(=O)CCCCC)OC(=O)CCCCC | -60 °C
56 | COc1ccc(-c2csc(/C(C#N)=C\c3cccs3)n2)cc1 | 140 °C
57 | CC(C)(C)c1ccc(CSc2cnn(C(C)(C)C)c(=O)c2Cl)cc1 | 112 °C
58 | CCOCn1c(-c2ccc(Cl)cc2)c(C#N)c(Br)c1C(F)(F)F | 101 °C
59 | CCCOC1CCC2C3CCC4=CC(=O)CCC4(C)C3CCC12C (stereo unspecified) | 117 to 119 °C
60 | O=[N+]([O-])c1c(Cl)cc(Cl)cc1C(Cl)Cl | 45 °C
61 | O=C1C(C(O)c2c(Cl)cccc2Cl)C(C(F)(F)F)=NN1c1ccccc1 (stereo unspecified) | 196 °C
62 | COc1ccccc1P(CCP(c1ccccc1)c1ccccc1OC)c1ccccc1 (stereo unspecified) | 102 to 104 °C
63 | N#Cc1cccc(F)n1 | 34 °C
64 | CC(Oc1c(Cl)cccc1Cl)C1=NCCN1 (stereo unspecified) | 126 °C
65 | CC(C)CCC#N | -51 °C
66 | O=C(CCl)OCCOC(=O)CCl | 45.5 °C
67 | Nc1nc(N)c(N=O)c(N)n1 | 300 °C
68 | Nc1nc(O)nc(C23CC4CC(CC(C4)C2)C3)n1 | 340 °C
69 | Cc1cc(C(C)(C)c2ccc(O)c(C)c2)ccc1O | 139 °C
70 | O=C(O)C(Br)c1ccccc1Cl (stereo unspecified) | 107 °C
71 | CCCOc1cc(O)cc(OCCC)c1 | 43 to 48 °C
72 | O=C(Cl)c1cc(-c2ccc(Cl)cc2)oc1C(F)(F)F | 135 to 137 °C

Row | SMILES | melting point
73 | C=CC(C)(CCC=C(C)C)OC(=O)C(C)C (stereo unspecified) | < 25 °C
74 | CCOCN(C(=O)CCl)c1c(C)cccc1CC | 10.6 °C
75 | CC1CC(=O)CC2CCC3C4CCC(O)C4(C)CCC3C12C (stereo unspecified) | 204 °C
76 | CCCCCOC(=O)CC | -73.1 °C
77 | N#C/C(=C/c1ccc(Cl)cc1Cl)c1nc(-c2ccc([N+](=O)[O-])cc2)cs1 | 210 °C
78 | OC1CCC(O)C1 (stereo unspecified) | 40 °C
79 | O=C(O)C(Cl)Cl | 13.5 °C
80 | CC(C)(C)N(NC(=O)c1ccccc1)C(=O)c1ccc(C#N)cc1 | 200 °C
81 | CON=C(C(=O)OC)c1ccccc1COc1ccccc1C | 102 °C
82 | COc1ccc(S(=O)(=O)Cl)c(OC)c1 | 72 °C
83 | CCOC(=O)c1c(SC)nn(-c2ccc([N+](=O)[O-])cc2)c1N | 181 °C
84 | O=C(NCO)NCO | 126 °C
85 | Oc1cccc(-c2ccccc2)c1 | 78 °C
86 | O=c1cc(-c2ccccc2)oc2ccc(Cl)cc12 | 183 to 187 °C
87 | OCCN(CCO)CCCc1ccc(COc2ccccc2)cc1 | 63 to 64 °C
88 | O=NN(c1ccccc1)c1ccccc1 | 66.5 °C
89 | COc1ccc(SCC(=O)O)cc1OC | 102 °C
90 | O=C1CCC2(O)C3Cc4ccc(O)c5c4C2(CCN3CC2CC2)C1O5 (stereo unspecified) | 169 °C
91 | COc1ccc(NC(=O)/C(C)=N\NC(N)=O)cc1 | 226 to 228 °C
